Data as given in ChEMBL document CHEMBL6134865, “Rational Design of Methylene Blue-Raloxifene Conjugates for Efficient Breast Tumor Elimination Triggered by ERα Degradation” (J Med Chem, 2025).
Active and inactive are the calls of the source. The rule behind the calls is not given here.

Assays:
[1] = Induction of ROS generation in water assessed as decrease in ABDA absorption peak at 1 uM irradiated with 660 nm 0.2 to 1.5 W/cm2 light for 5 mins by ABDA probe based UV-vis absorption spectra analysis; format: functional
MCF7 [2] = assay: Induction of ROS generation in human MCF7 cells assessed as cell percentage with elevated ROS at 1 uM incubated for 6 hrs by DCFH-DA probe based flow cytometric analysis (reference value: 0.2 %); format: functional
MCF7 [3] = assay: Induction of ROS generation in human MCF7 cells assessed as cell percentage with elevated ROS at 1 uM incubated for 6 hrs followed by irradiation with 660 nm 0.4 W/cm2 light for 1 min by DCFH-DA probe based flow cytometric analysis (reference value: 0.2 %); format: functional; conditions: time 361 min, 6.017 h
MCF7 [4] = assay: Induction of ROS generation in human MCF7 cells assessed as cell percentage with elevated ROS at 1 uM incubated for 6 hrs followed by irradiation with 660 nm 0.4 W/cm2 light for 2 min by DCFH-DA probe based flow cytometric analysis (reference value: 0.2 %); format: functional; conditions: time 362 min, 6.033 h
MCF7 [5] = assay: Induction of ROS generation in human MCF7 cells assessed as cell percentage with elevated ROS at 1 uM incubated for 6 hrs followed by irradiation with 660 nm 0.4 W/cm2 light for 4 min by DCFH-DA probe based flow cytometric analysis (reference value: 0.2 %); format: functional; conditions: time 364 min, 6.067 h
[6] = Drug uptake in human MCF7 cell cytoplasm assessed as increase in red fluorescence at 1 uM incubated for 6 hrs by fluorescence imaging analysis; format: ADME, subcellular; conditions: mcf7, 6 h
MCF7 [7] = assay: Induction of ROS generation in human MCF7 cells assessed as increase in green fluorescence at 1 uM incubated for 6 hrs followed by irradiation with 660 nm 0.4 W/cm2 light for 5 min by fluorescence imaging analysis; format: functional, cell-based; conditions: time 365.0 min
MCF7 [8] = assay: Photothermal effect in human MCF7 cells assessed as temperature of cell culture medium at 1 uM irradiated with 660 nm 0.4 W/cm2 light for 3 min (reference value: 26 degreeC); format: ADME, cell-based; conditions: mcf7, 0.05 h
MCF7 [9] = assay: Antitumor activity against human MCF7 cells xenografted in female BALB/c mouse model assessed as tumor regression at 5 mg/kg, iv measured after 14 days with 660 nm 0.4 W/cm2 light irradiation for 5 mins at 4 hrs of incubation time (reference value: 122.9 mm3); format: functional; conditions: time 14 day
Mus musculus = assay: In vivo induction of ERalpha degradation in female BALB/c mouse xenografted with human MCF7 cells assessed as decrease in ERalpha level in tumor at 5 mg/kg, iv measured after 14 days with 660 nm 0.4 W/cm2 light irradiation for 5 mins at 4 hrs of incubation time by DAPI staining based immunofluorescence analysis; format: functional, organism-based; conditions: time 14.0 day
[10] = Toxicity in female BALB/c mouse xenografted with human MCF7 cells assessed as change in white blood cell level at 5 mg/kg, iv measured after 14 days; format: organism-based; conditions: in vivo, 336 h, time 14 day
[11] = Toxicity in female BALB/c mouse xenografted with human MCF7 cells assessed as change in lymphocytes level at 5 mg/kg, iv measured after 14 days; format: organism-based; conditions: in vivo, 336 h, time 14 day
[12] = Toxicity in female BALB/c mouse xenografted with human MCF7 cells assessed as change in hemoglobin level at 5 mg/kg, iv measured after 14 days; format: organism-based; conditions: in vivo, 336 h, time 14 day
[13] = Toxicity in female BALB/c mouse xenografted with human MCF7 cells assessed as change in blood urea nitrogen level at 5 mg/kg, iv measured after 14 days; format: organism-based; conditions: in vivo, 336 h, time 14 day
[14] = Toxicity in female BALB/c mouse xenografted with human MCF7 cells assessed as change in creatinine level at 5 mg/kg, iv measured after 14 days; format: organism-based; conditions: in vivo, 336 h, time 14 day
[15] = Toxicity in female BALB/c mouse xenografted with human MCF7 cells assessed as change in creatinine level at 5 mg/kg, iv measured after 14 days with 660 nm 0.4 W/cm2 light irradiation for 5 mins at 4 hrs of incubation time; format: organism-based; conditions: in vivo, 336 h, time 14 day
[16] = Drug uptake in female BALB/c mouse kidney xenografted with human MCF7 cells at 5 mg/kg, iv measured after 4 hrs by fluorescence imaging analysis; format: ADME, organism-based; conditions: in vivo
[17] = Toxicity in female BALB/c mouse xenografted with human MCF7 cells assessed as effect on lung histology at 5 mg/kg, iv measured after 14 days by H and E staining based analysis; format: organism-based; conditions: in vivo, 336 h, time 14 day
[18] = Toxicity in female BALB/c mouse xenografted with human MCF7 cells assessed as effect on liver histology at 5 mg/kg, iv measured after 14 days by H and E staining based analysis; format: organism-based; conditions: in vivo, 336 h, time 14 day
[19] = Toxicity in female BALB/c mouse xenografted with human MCF7 cells assessed as effect on spleen histology at 5 mg/kg, iv measured after 14 days by H and E staining based analysis; format: organism-based; conditions: in vivo, 336 h, time 14 day
[20] = Toxicity in female BALB/c mouse xenografted with human MCF7 cells assessed as effect on kidney histology at 5 mg/kg, iv measured after 14 days by H and E staining based analysis; format: organism-based; conditions: in vivo, 336 h, time 14 day
MCF7 [21] = assay: cells; conditions: Homo sapiens, MCF7, light or radiation study
Description: Antiproliferative activity against human MCF7 cells assessed as inhibition of cell proliferation incubated for 48 hrs with 660 nm 0.4 W/cm2 light irradiation for 4 min at 6th hr of incubation time by MTT assay

MCF7 [22] = assay: cells; conditions: Homo sapiens, MCF7, light or radiation study; remark: listed apart in the source
Description: Antiproliferative activity against human MCF7 cells assessed as inhibition of cell proliferation incubated for 48 hrs with 660 nm 0.4 W/cm2 light irradiation for 5 min at 6th hr of incubation time by MTT assay

in vivo = conditions: Sprague-Dawley, rat, po, 15 mg/kg
Description: Tmax in Sprague-Dawley rat at 15 mg/kg, po administered via gavage and measured after 0.5 to 168 hrs by LC-MS analysis

With `CCN(CC)c1ccc2nc3c4ccccc4/c(=N\CCCCCCC(=O)NCCOc4ccc(C(=O)c5c(-c6ccc(O)cc6)sc6cc(O)ccc56)cc4)cc-3sc2c1` the Activity [1] was “Active”, the Activity (MCF7 [2]) was 0.7% and the Activity (MCF7 [3]) was 5.5%. For the same compound, the Activity (MCF7 [4]) was 6.5%, the Activity (MCF7 [5]) was 47.8% and the Drug uptake [6] was “Active”. For the same compound, the Activity (MCF7 [7]) was “Active”, the T (MCF7 [8]) was 29 °C and the Activity (MCF7 [9]) was 45.3 mm3. For the same compound, the Activity (Mus musculus) was “Active; Superior To That Of Faslodex”, the Activity [10] was “Non-toxic” and the Activity [11] was “Non-toxic”. For the same compound, the Activity [12] was “Non-toxic”, the Activity [13] was “Non-toxic” and the Activity [14] was “Non-toxic”. The Activity [15] was “Non-toxic”, the Drug uptake [16] was “Active” and the Activity [17] was “Non-toxic”. The Activity [18] was “Non-toxic”, the Activity [19] was “Non-toxic” and the Activity [20] was “Non-toxic”. For the same compound, the IC50 (MCF7 [21]) was 0.16 µM, the IC50 (MCF7 [22]) was 0.13 µM and the Tmax (in vivo) was 6 h.
